From paper PMC7036909, “Discovery of Selective SIRT2 Inhibitors as Therapeutic Agents in B-Cell Lymphoma and Other Malignancies” (Molecules, 2020)
“And” between values parts separate entries of the source, which are not always exact repeats. Equal values may be shown once.

Assays:
[1] = tested on: OCI-Ly8-LAM-53 (OCI, DLBCL) cells; experiment: Cell viability (CellTiter-Glo), OCI; format: cell-based; details: 72 h, cellular ATP; read-out: OCI LC50
Description: (§1) With selective SIRT2 inhibitors in hand, we proceeded to evaluate cytotoxicity of our compounds in Daudi, Raji (Burkitt lymphoma) and OCI-Ly8-LAM-53 (OCI, a representative of several Diffuse Large B-Cell Lymphoma lines; DLBCL) cell lines. Briefly, cells were plated in 96-well plates and treated with inhibitors at desired concentrations for 72 h. Cellular viability was determined by measuring the amount of cellular ATP using CellTiter-Glo assay kit (Promega) and normalized against DMSO-treated controls. […] Selected inhibitors were further evaluated in an expanded panel of cancer cell lines including breast cancer (MCF-7 and MDA-MB231), prostate cancer (PC-3) and glioblastoma multiforme (U-251). […] However, the trend in potency as a function of the structure is consistent with the results obtained against lymphoma cell lines. […] . Cell lines were obtained from ATCC (Manassas, VA, USA) and were grown under standard conditions as recommended. For viability assays, 3000 cells per well were dispensed into 96-well plates and treated with test compounds (final DMSO concentration 0.25%). Cells were incubated with test compounds (or DMSO controls) for 72 h or 5 days as noted at 37 °C in 5% CO2 and viability was determined using the CellTiter-Glo Assay (Promega Corp.) according to manufacturer’s instructions.

SIRT3 = target: T1, SIRT3 (Homo sapiens, UniProt Q9NTG7); experiment: SIRT-Glo enzyme inhibition assay, SIRT3; details: read-out: SIRT3 percentage inhibition at 50 µM compound, 50 µM compound
T1 sequence (Q9NTG7 1-399): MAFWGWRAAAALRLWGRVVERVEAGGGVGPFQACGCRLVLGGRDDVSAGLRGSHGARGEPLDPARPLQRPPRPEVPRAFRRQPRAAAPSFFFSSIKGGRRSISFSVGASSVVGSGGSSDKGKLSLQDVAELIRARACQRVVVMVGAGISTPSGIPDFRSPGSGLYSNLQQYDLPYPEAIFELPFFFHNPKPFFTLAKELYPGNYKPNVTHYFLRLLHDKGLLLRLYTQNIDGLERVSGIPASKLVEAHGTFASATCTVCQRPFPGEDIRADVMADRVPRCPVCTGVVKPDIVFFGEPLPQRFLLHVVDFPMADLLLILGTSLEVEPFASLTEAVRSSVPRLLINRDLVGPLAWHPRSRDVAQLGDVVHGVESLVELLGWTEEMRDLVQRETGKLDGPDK
Description: (§2) SIRT1, SIRT2, and SIRT3 were purchased from Cayman Chemical. Enzyme inhibition assays were performed in 96-well black plates using the SIRT-Glo Assay (Promega Corp.) according to the manufacturer’s instructions. Compounds were dissolved in 100% DMSO and to make 5- or 10-mM stock solutions. For initial enzyme inhibition tests, 50 µM of inhibitory concentration was used. […] IC50 values were determined in triplicate and reported values are averages of two independent experiments.

[2] = tested on: Daudi (Burkitt lymphoma) cells; experiment: Cell viability (CellTiter-Glo), Daudi; format: cell-based; details: Homo sapiens, 72 h, cellular ATP, read-out: Daudi LC50
Description: as §1

SIRT2 = target: T2, SIRT2 (Homo sapiens, UniProt Q8IXJ6); experiment: SIRT-Glo enzyme inhibition assay, SIRT2; details: for IC50: SIRT2 IC50; for inhibition at 50 µM: read-out: SIRT2 percentage inhibition at 50 µM compound, 50 µM compound
T2 sequence (Q8IXJ6 1-389): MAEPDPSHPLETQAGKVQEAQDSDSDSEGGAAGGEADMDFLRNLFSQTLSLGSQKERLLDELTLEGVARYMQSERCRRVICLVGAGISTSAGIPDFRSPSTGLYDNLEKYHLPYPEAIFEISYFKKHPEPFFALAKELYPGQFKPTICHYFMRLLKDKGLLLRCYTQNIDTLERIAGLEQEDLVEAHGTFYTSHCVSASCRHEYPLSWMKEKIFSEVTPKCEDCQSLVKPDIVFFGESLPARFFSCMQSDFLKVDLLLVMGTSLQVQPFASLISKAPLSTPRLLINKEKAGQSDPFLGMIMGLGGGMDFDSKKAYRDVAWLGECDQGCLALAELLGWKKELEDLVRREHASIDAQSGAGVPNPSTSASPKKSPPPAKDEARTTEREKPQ
Description: as §2

SIRT1 = target: T3, SIRT1 (Homo sapiens, UniProt Q96EB6); experiment: SIRT-Glo enzyme inhibition assay, SIRT1; details: read-out: SIRT1 percentage inhibition at 50 µM compound, 50 µM compound
T3 sequence (Q96EB6 1-747): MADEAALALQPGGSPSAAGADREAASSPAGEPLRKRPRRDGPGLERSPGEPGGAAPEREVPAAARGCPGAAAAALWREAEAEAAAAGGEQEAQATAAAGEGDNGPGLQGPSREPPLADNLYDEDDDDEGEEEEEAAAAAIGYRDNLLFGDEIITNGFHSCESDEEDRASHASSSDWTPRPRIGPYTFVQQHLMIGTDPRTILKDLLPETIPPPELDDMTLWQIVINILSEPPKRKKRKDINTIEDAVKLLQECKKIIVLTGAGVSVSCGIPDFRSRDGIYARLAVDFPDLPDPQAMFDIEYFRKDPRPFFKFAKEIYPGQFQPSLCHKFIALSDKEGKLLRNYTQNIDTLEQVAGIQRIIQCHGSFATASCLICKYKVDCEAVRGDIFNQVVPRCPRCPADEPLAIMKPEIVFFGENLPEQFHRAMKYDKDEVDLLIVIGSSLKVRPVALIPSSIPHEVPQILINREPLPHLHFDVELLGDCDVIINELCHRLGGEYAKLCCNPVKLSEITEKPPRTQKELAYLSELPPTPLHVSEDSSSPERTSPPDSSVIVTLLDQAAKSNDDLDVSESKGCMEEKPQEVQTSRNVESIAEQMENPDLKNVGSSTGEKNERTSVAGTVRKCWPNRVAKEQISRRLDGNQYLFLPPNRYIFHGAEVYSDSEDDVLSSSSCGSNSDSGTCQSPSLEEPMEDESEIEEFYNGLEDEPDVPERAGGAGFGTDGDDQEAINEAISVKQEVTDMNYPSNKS
Description: as §2

[3] = tested on: Raji (Burkitt lymphoma) cells; experiment: Cell viability (CellTiter-Glo), Raji; format: cell-based; details: Homo sapiens, 72 h, cellular ATP, read-out: Raji LC50
Description: as §1

[4] = tested on: U-251 glioblastoma multiforme cells; experiment: Cell viability (CellTiter-Glo), U-251; format: cell-based; details: Homo sapiens, cellular ATP, read-out: U251 LC50
Description: as §1

OCI DLBCL cells = experiment: Annexin V staining assay; details: 5 µM
Description: OCI DLBCL cells were treated with 56 for 24 h. Cells were lysed and analyzed by western blot assay for cleaved poly-ADP-ribose polymerase (PARP), a well-accepted apoptosis marker [42] (Abcam, Cambridge, UK).

SMILES	CC50 [1]	inhibition at 50 µM (SIRT3)	CC50 [2]	IC50 (SIRT2)	inhibition at 50 µM (SIRT2)	inhibition at 50 µM (SIRT1)	CC50 [3]	CC50 [4]	Q1 (necrotic cell death) cell population (OCI DLBCL cells)	Q2 (apoptotic cells) cell population (OCI DLBCL cells)	Q3 cell population (OCI DLBCL cells)	Q4 cell population (OCI DLBCL cells)
NC(=O)C(Cc1c(O)ccc2cc(Br)ccc12)C(=O)c1ccc(Cl)cc1 (stereo not drawn) [Compound 19, 2-[(6-Bromo-2-hydroxynaphthalen-1-yl)methyl]-3-(4-chlorophenyl)-3-oxopropanamide]	8.2 µM	30%	5 µM	2.79 µM and 2.8 µM	95%	0%	7.3 µM	–	–	–	–	–
NC(=O)C(Cc1c(O)ccc2cc(Br)ccc12)C(=O)c1ccc(Br)cc1 (stereo not drawn) [Compound 22, 2-[(6-Bromo-2-hydroxynaphthalen-1-yl)methyl]-3-(4-bromo)-3-oxopropanamide]	1.6 µM	42%	7 µM	2.5 µM	93%	7%	7.8 µM	–	–	–	–	–
CNC(=O)C(Cc1c(O)ccc2cc(Br)ccc12)C(=O)c1ccc(C(F)(F)F)cc1 (stereo not drawn) [Compound 33, 2-[(6-Bromo-2-hydroxynaphthalen-1-yl)methyl]-N-methyl-3-oxo-3-[4-(trifluoromethyl)phenyl]propenamide]	16.4 µM	6%	14.5 µM	0.59 µM	97%	–	18.5 µM	–	–	–	–	–
NC(=O)CCNC(=O)C(Cc1c(O)ccc2cc(Br)ccc12)C(=O)c1cccc(Br)c1 (stereo not drawn) [Compound 43, 2-[(6-Bromo-2-hydroxynaphthalen-1-yl)methyl]-3-(3-bromophenyl)-N-(2-carbamoylethyl)-3-oxopropanamide]	–	20%	15.8 µM	0.96 µM	89%	0%	19.4 µM	–	–	–	–	–
O=C(NCCO)C(Cc1c(O)ccc2cc(Br)ccc12)C(=O)c1ccc(Cl)cc1 (stereo not drawn) [Compound 47, 2-[(6-Bromo-2-hydroxynaphthalen-1-yl)methyl]-3-(4-chlorophenyl)-N-(2-hydroxyethyl)-3-oxopropanamide]	9.7 µM	5%	–	0.96 µM	98%	0%	20.2 µM	–	–	–	–	–
NC(=O)CCNC(=O)C(Cc1c(O)ccc2cc(Br)ccc12)C(=O)c1ccc(Cl)cc1 (stereo not drawn) [Compound 50, 2-[(6-Bromo-2-hydroxynaphthalen-1-yl)methyl]-N-(2-carbamoylethyl)-3-(4-chlorophenyl)-3-oxopropanamide]	11.7 µM	17%	–	0.65 µM	99%	4%	19.9 µM	–	–	–	–	–
NC(=O)CCNC(=O)C(Cc1c(O)ccc2cc(Br)ccc12)C(=O)c1ccc(Br)cc1 (stereo not drawn) [Compound 51, 2-[(6-Bromo-2-hydroxynaphthalen-1-yl)methyl]-3-(4-bromophenyl)-N-(2-carbamoylethyl)-3-oxopropanamide]	10.2 µM	14%	19.2 µM	0.58 µM	98%	20%	16.7 µM	25.9 µM	–	–	–	–
NC(=O)CCNC(=O)C(Cc1c(O)ccc2cc(Br)ccc12)C(=O)c1ccc(C(F)(F)F)cc1 (stereo not drawn) [Compound 52, 2-[(6-Bromo-2-hydroxynaphthalen-1-yl)methyl]-N-(2-carbamoylethyl)-3-oxo-3-[4-(trifluoromethyl)phenyl]-propenamide]	25.5 µM	21%	28.2 µM	0.65 µM	93%	0%	19.4 µM	–	–	–	–	–
COc1cc([C@@H]2c3cc4c(cc3[C@@H](O[C@@H]3O[C@@H]5CO[C@@H](C)O[C@H]5[C@H](O)[C@H]3O)[C@H]3COC(=O)[C@H]23)OCO4)cc(OC)c1O [Etoposide, etoposide, reference compound]	–	–	–	–	–	–	–	–	5.1%	59.8%	26.8%	8.3%
